From patent US9415108B2, “Compositions for transdermal delivery of active agents” (NeuroDerm, Ltd., priority 2010, dated 2016)

Assays:
Assay type in all cases: in vitro ADME
[1] = Transdermal delivery of carbidopa through full thickness pig skin ex vivo, Franz Cell delivery system; settings: for Transdermal delivery of Carbidopa through full thickness pig skin, ex vivo: 24 h, 8.85% carbidopa-arginine salt
Procedure: The effects of octanol, limonene and/or lauroglycol on the transdermal delivery of carbidopa through full thickness pig skin are evaluated using the Franz Cell delivery system. Formulations containing carbidopa, octanol, limonene, and/or lauroglycol are prepared (formulations 1-8). Samples are collected from the receive cell at 24 and 41 hours after application of the formulation to the skin. The amount of carbidopa compounds in the receiver cell fluid is determined using a spectrophotometer and/or UV-HPLC at 280 nm. […] In Table 1 and FIG. 1, the formulations each contain 14.5% (by weight) carbidopa-arginine salt. In Table 2 the formulations each contain 8.85% (by weight) carbidopa-arginine salt.

[2] = Transdermal delivery of opipramol through full thickness pig skin ex vivo
[3] = as above; remark: listed apart in the source
Procedure: FIG. 7 depicts the effect of organic acids on the transdermal delivery of opipramol through full thickness pig skin. Formulations containing opipramol, various organic acids (succinic acid, citric acid, lactic acid, ascorbic acid, malic acid, or tartaric acid), octanol, lauroglycol, and/or Klucel® are prepared. Samples are collected from the receive cell at 22 and 46 hours after application of the formulations to the skin. The amount of opipramol compounds in the receiver cell fluid is determined using a spectrophotometer and/or UV-HPLC at 280 nm. FIG. 8 depicts the effects of octanol, limonene and/or lauroglycol on the transdermal delivery of opipramol (5% by weight) through full thickness pig skin.

[4] = inclusion of Klucel hydroxypropyl cellulose in formulation containing octanol and limonene (FIG. 4)

**Q.** Which “Transdermal delivery of Carbidopa through full thickness pig skin, ex vivo” value (“Transdermal delivery … ex vivo” for short) ([1]; Octanol 0, Limonene 1.5, Oleic Acid 0) does the source give for C[C@@](Cc1ccc(O)c(O)c1)(NN)C(=O)O [Carbidopa, carbidopa] here?
**A.** Its value is 1.0 mg/cm^2.

**Q.** And the “Transdermal delivery … ex vivo” value ([1]; Octanol 0, Limonene 1.5, Oleic Acid 2)?
**A.** Its value is 1.0 mg/cm^2.

**Q.** What about the “Transdermal delivery … ex vivo” value ([1]; Octanol 4, Limonene 1.5, Oleic Acid 0) of the same molecule?
**A.** Its value is 6.4 mg/cm^2.

**Q.** What about the “Effect of the combination of octanol and lauroglycol on delivery of carbidopa through pig skin” value ([1]; FIG. 1, depends on the octanol:lauroglycol ratio) of the same molecule?
**A.** The value was “enhances”.

**Q.** And the “Effect of the combination of octanol and limonene on delivery of carbidopa through pig skin” value ([1]; FIGS. 1 and 2, Tables 1 and 2)?
**A.** Its value is “additive and/or synergistic effect”.

**Q.** And the “Effect on lag time of carbidopa penetration through the skin” value ([1]; addition of lactic acid to formulation containing octanol and limonene (FIG. 3))?
**A.** The value was “reduces”.

**Q.** What about the “Effect on lag time of carbidopa penetration” value [1, 4] of the same molecule?
**A.** The value was “increases”.

**Q.** What about the “Effect on rate of carbidopa penetration through the skin” value [1, 4] of the same molecule?
**A.** The value was “reduces”.

**Q.** And the “Enhancement of penetration of the drug through the skin” value ([1]; on increasing the amount of carbidopa in the formulation by 50% (FIG. 5))?
**A.** Its value is 25%.

**Q.** What does the source list for OCCN1CCN(CCCN2c3ccccc3C=Cc3ccccc32)CC1 [opipramol]?
**A.** Effect of glutamic acid on opipramol penetration through the skin ([2]; FIG. 9): significantly increases; Effect of increasing concentration of Klucel on penetration of opipramol through the skin ([2]; FIG. 10): reduces; Effect of tartaric acid on opipramol penetration through the skin as compared to opipramol base ([2]; FIG. 11): significantly increases; Tartaric acid compared with hydrochloric acid, opipramol penetration ([2]; FIG. 11): significantly superior; Opipramol delivery of formulation containing 2.5% (wt) opipramol ([2]; FIG. 12, compared with 1% formulation): delivers more opipramol than the 1% formulation; Transdermal delivery of opipramol at 5% opipramol in the formulation ([2]; FIG. 12, higher concentration): may be inhibited; Rate of opipramol penetration ([2]; glutamic acid formulation, in the presence of 1% limonene (FIG. 9)): reduced; Lag time of opipramol penetration through the skin ([2]; glutamic acid formulation, in the presence of 5% water (FIG. 9)): shortened; Effect of addition of organic acids on transdermal delivery of opipramol ([3]; FIG. 7): significantly increases; Effect of lactic acid and citric acid on opipramol penetration through the skin ([3]; FIG. 7): minimal effect; Effect of tartaric acid on opipramol delivery relative to other organic acids ([3]; FIG. 7, followed by ascorbic, succinic and malic acid): highest enhancing effect; Effect of lauroglycol in the formulation on opipramol delivery ([3]; FIG. 8, Table 3): reduces the additive and/or synergistic effect; Effect of the combination of octanol and limonene on delivery of opipramol through pig skin ([3]; FIG. 8, opipramol 5% by weight): additive and/or synergistic effect
